Measurements taken from patent US20070166414A1, “METHOD FOR ENHANCING TAMOXIFEN EFFICACY AS A CANCER THERAPEUTIC” (priority 2006, published 2007).
Entries after “also recorded” stand apart in the source; their conditions may differ.

Legend:
[1] = LC-MS analysis of serum isoflavone levels; design: species or system female rats; details: rat, in vivo
Description: LC-MS analysis of isoflavone levels. Serum isoflavone levels of animals on the diets for four weeks without DMBA treatment were analysed. Blood was collected by orbital bleeding. Serum (400 μL) from each sample was transferred into a 2-mL Eppendorf tube. To each tube, 100 μL of 1 M (pH 5.0) buffer was added followed by vortex mixing, then 40 μL sulphatase (50 mg/mL, Sigma # S-3009) enzyme solution was added. After shaking, the mixture was incubated overnight in a 37° C. water bath (>17 h). The enzymatic hydrolysis was stopped by adding 1 mL ice-cold ethanol/acetonitrile (1:1; v/v), mixed and centrifuged at 4° C. for 15 minutes (10,000 rpm). The supernatant was removed and evaporated to dryness under vacuum. The resulting residue was reconstituted with 150 μL internal standard solution, and three aliquots (15 μL each) were analysed using LC-MS (HP 1100 LC-MS D) over an Xterra RP-18 column (2.1×100 mm, 3.5 μm). The mobile phase was 0.1% (v/v) formic acid followed by acetonitrile (containing 0.1% (v/v) formic acid). Elution was at 200 μL/min. The MSD was operated in negative electrospray ionisation mode with selected ion monitoring of m/z 253 for daidzein and internal standard (chrysin), m/z 269 for genistein, and m/z 241 for equol. Three to four samples from each group were analysed and resulting values are mean± SD.

[2] = test system: proliferating cell nuclear antigen (PCNA); test: PCNA staining of endometrial tissue; type: in vivo, female rats; details: endometrium gland and stroma, diet 28 and 185 days, vs basal diet
Description: (§1) Four groups of female rats were fed the basal AIN-76A diet supplemented with: 1) vehicle (control), (2) tamoxifen (0.125 mg/Kg), (3) daidzein (140 mg/Kg), (4) tamoxifen (0.125 mg/Kg) plus daidzein (140 mg/Kg) combination. Rats were sacrificed at either 28 days (short term exposure) or 185 days (long term exposure) after diet initiation, and the endometrium was removed and processed for immunohistochemical and biochemical evaluations.

[3] = test system: PTEN; test: PTEN staining of endometrial tissue; type: in vivo, female rats; details: endometrium, diet 28 and 185 days
Description: as §1

[4] = test system: endometrium DNA damage; test: DNA damage in endometrium by comet assay; type: in vivo, female rats; details: diet 28 or 185 days, vs basal diet
Description: as §1

[5] = test system: 8-oxo-deoxyguanosine (8-oxo-dG); test: LC-UV-MS-MS quantification of 8-oxo-dG (oxidative DNA damage) in normal mammary glands; type: in vivo, female Sprague-Dawley rats; details: in words, vs +control (DMBA); FIG. 3
Description: DNA Hydrolysis. DNA was extracted from normal mammary tissue from six different rats from each group and dissolved in water at ˜2 mg/mL. Aliquots (50-μL) containing ˜100 μg of DNA were mixed with 50 μL of buffer (50 mM ammonium acetate, 0.2 mM ZnCl2, pH 5.3), 10 μL of nuclease P1 (0.4 unit/μL), and 8 μL of alkaline phosphatase (1 unit/μL in 10 mM Tris pH 7.4) and incubated at 37° C. for 30 minutes. […] Bedford, Mass. USA). The solution was centrifuged for 15 minutes at 12,000 rpm and 4° C. just before LC-UV-MS-MS analysis. LC-UV-MS-MS Quantification of Oxidized Nucleosides. The HPLC system consisted of a ThermoFinnigan (San Jose, Calif. USA) Surveyor MS pump coupled with an autosampler, a PDA detector and a YMC (Wilmington, N.C. USA) ODS-AQ C18 column (2.0×250 mm, 5 μm), and guard column (4.0×20 mm). Absorbance detection at 240-290 nm was used for on-line HPLC quantification of dG and dC in the DNA hydrolysate, and a standard curve was prepared using standard solutions of dG and dC in the initial mobile phase. […] For DNA oxidation, the solvent system consisted of water/methanol 90:10 (v/v) at the start point and a linear gradient from 10 to 25% (v/v) methanol over 0-25 min. […] Selected reaction monitoring (SRM) was carried out using a TSQ Quantum triple quadruple mass spectrometer equipped with negative ion (for DNA oxidation) electrospray ionisation. Nitrogen was used as the sheath gas and auxiliary gas at 25 and 10 arbitrary units, respectively. The spray voltage was […]. Collision-induced dissociation (CID) was carried out using argon at 1.0-1.5 mTorr with the collision energy of 10-20 V. The span time per ion channel was 0.5 seconds during SRM. For 8-oxo-deoxyguanosine (8-oxo-dG), m/z 282>192 was selected as SRM (m/z 297>204 for the isotopically labelled internal standard). For 5-MedC, m/z 242>126 was selected as SRM (m/z 245>129 for the isotopically labelled internal standard).

[6] = test system: DMBA-induced rat mammary carcinogenesis; test: Chemoprevention study: DMBA-induced mammary tumors in rats fed experimental diets; details: for Survival (%): n=20; for Final tumor incidence: n=20, 114 days, * P<0.05, ** P<0.01 vs control (Fisher's exact test); for Latency (P-: P-value vs +control (DMBA) group, unpaired t-test; for Tumor burden (average tumor weight per group): in words, vs control (FIG. 2b)
Description: Chemoprevention Study. The diets were formulated by Harlan-Teklad (Madison, Wis. USA) to contain approximately the same amounts of protein, fat, and carbohydrates. The basal diet AIN-76A is free of soy products. The diets were also adjusted to contain similar amounts of methionine, cystine, and choline because these nutrients have been reported to affect mammary carcinogenesis. Daidzein and genistein were added in the basal diets as necessary (Table 1), at 140 and 105 mg/Kg of diet respectively. The selected isoflavone concentrations were based on the amounts present in the well-tolerated 16% (w/w) S PI diet (13). The tam oxifen dose of 0.125 mg/Kg diet was selected based on a previous study (24).
Virgin female Sprague-Dawley rats at 35 days of age were randomized by weight into 5 groups (20 rats per group) and fed basal AIN-76A diet. At 43 days of age, all but the control groups received basal diet supplemented with the appropriate test agents. After an additional week the animals received a single dose (12.5 mg) of DMBA intragastrically in sesame oil.
During the experimental period, the animals were weighed weekly. Palpation of mammary tumors began four weeks after animals received DMBA and continued until termination of the study. The date of appearance and location of every palpable tumor were recorded. Rats were observed daily to assess their general health. Rats were sacrificed by CO2 asphyxiation. Mammary tumors were coded by location, removed from the rat, and weighed. Sections of normal mammary tissue were also taken and either flash frozen in liquid nitrogen or formalin-fixed for paraffin embedding. The experiment and protocol was approved and performed in compliance with relevant laws and institutional guidelines according to the Animal Care Committee (01-142) and Animal Welfare Assurance (A3460.01) at the University of Illinois at Chicago.
Statistical analysis. A significant inhibition of tumor induction as achieved by administration of an inhibitor was defined as a statistically significant decrease (at 5% level) in tumor incidence, multiplicity, or latency period. Statistical comparison of tumor latency between groups was by unpaired t-test. The statistical significance of differences between mean tumor multiplicities was assessed using analysis of variance (ANOVA), and the Armitage'stest for trends in proportions (25). Tumor incidence rates were generated by the life table method, and compared by (one tailed) log-rank analysis (25).

[7] = test system: implanted oestrogen-dependent MCF-7 cells; details: athymic mice; Cancer Research 62: 2474-2477; cited from earlier work
[8] = LC-MS analysis of serum isoflavone levels; type: in vivo, female rats; details: diet for four weeks, no DMBA; 3-4 rats per group; ± SEM
[9] = female, Sprague-Dawley, 4 weeks

CC/C(=C(\c1ccccc1)c1ccc(OCCN(C)C)cc1)c1ccccc1 [TAM, tamoxifen]
Mean serum level of DAI (daidzein) [1, 9]: 0.2 ± 0.0 ng/mL | Mean serum level of Equol [1, 9]: 0.0 ng/mL | Mean serum level of GEN (genistein) [1, 9]: 0.8 ± 0.1 ng/mL | Mean serum level of DAI (daidzein) [1]: very low levels | Mean serum level of Equol [1]: not detectable | Mean serum level of GEN (genistein) [1]: very low levels | PCNA expression [2]: increased expression of PCNA; also recorded: increased proliferating cell nuclear antigen (PCNA) expression | PTEN expression [3]: reduction in PTEN expression; also recorded: reduced PTEN expression | DNA damage (comet assay) ([4]; listed as Tamoxifen): significantly increased DNA damage | DNA damage (comet assay) ([4]; listed as tamoxifen): increased DNA damage | 8-oxo-dG levels (ratio 8-oxo-dG/dG) in mammary glands [5]: ineffective | Survival (%) ([6]; DMBA-exposed rats on diet): 90% | Final tumor incidence ([6]; DMBA-exposed rats on diet): 73* | Latency (P- [6]: 0.013 | Increase of tumor latency over the control value ([6]; compared to positive control): 46% | Mean body weight ([6]; rat, in vivo): 94.4

O=c1c(-c2ccc(O)cc2)coc2cc(O)ccc12 [DAI, 7-hydroxy-3-(4-hydroxyphenyl)-4H-1-benzopyran-4-one]
Mean serum level of DAI (daidzein) [1, 9]: 3.6 ± 0.9 ng/mL | Mean serum level of Equol [1, 9]: 115.0 ± 20.6 ng/mL | Mean serum level of GEN (genistein) [1, 9]: 1.2 ± 4.7 ng/mL | Mean serum level of Equol [1]: very high concentrations | Mean serum level of GEN (genistein) [1]: very low levels | PCNA expression ([2]; listed as daidzein): increased expression of PCNA | PCNA expression ([2]; listed as diadzein): increased PCNA | PTEN expression ([3]; listed as daidzein): reduction in PTEN expression | PTEN expression ([3]; listed as diadzein): reduced PTEN expression | DNA damage (comet assay) ([4]; listed as Daidzein): no damaging effect | DNA damage (comet assay) ([4]; listed as diadzein): did not affect the level of DNA damage | 8-oxo-dG levels (ratio 8-oxo-dG/dG) in mammary glands [5]: suppressed the levels of 8-oxo-dG equal to those of the group never exposed to DMBA | Survival (%) ([6]; DMBA-exposed rats on diet): 95% | Final tumor incidence ([6]; DMBA-exposed rats on diet): 85 | Latency (P- [6]: 0.322 | Tumor burden (average tumor weight per group) [6]: reduced tumor burden as effectively as tamoxifen | Mean body weight ([6]; rat, in vivo): 99.2

O=c1c(-c2ccc(O)cc2)coc2cc(O)cc(O)c12 [GEN, genistein]
Effect on tamoxifen inhibition of growth of implanted MCF-7 cells [7]: negated the inhibitory effect of tamoxifen | Mean serum level of DAI (daidzein) [8]: very low levels | Mean serum level of Equol [8]: not detectable | 8-oxo-dG levels (ratio 8-oxo-dG/dG) in mammary glands [5]: ineffective | Survival (%) ([6]; DMBA-exposed rats on diet): 95% | Final tumor incidence ([6]; DMBA-exposed rats on diet): 85 | Mean body weight ([6]; DMBA-exposed rats on diet, control = 100.0): 100.7 | Latency (P- [6]: 0.326 | Tumor burden (average tumor weight per group) [6]: ineffective
